This passage reports IC50 and Selectivity results from patent EP4786487A1, “PEPTIDE” (Peptidream Inc, priority 2023, dated 2025).

Starred links: 1 amine or outer side, 2 acyl side, 3 side chain; linkers in the order of their positions; H or OH if unused. Positions of bridges follow the written chain, without caps; N, C: chain ends. Non-standard residues stand in square brackets, D forms with d. Residues, ends and D or L forms follow the SMILES beside them. *: point of attachment. Phe(4-(4-pyridyl)) = N[C@@H](Cc1ccc(-c2ccncc2)cc1)C(=O)O; Phe(3-OCH2COOH) = N[C@@H](Cc1cccc(OCC(=O)O)c1)C(=O)O; Phe(4-COOH) = N[C@@H](Cc1ccc(C(=O)O)cc1)C(=O)O; Trp(7-aza) = N[C@@H](Cc1c[nH]c2ncccc12)C(=O)O; Gly(N(CH2)3COOH) = O=C(O)CCCNCC(=O)O; Gly(octyl) = CCCCCCCC[C@H](N)C(=O)O; NMe3Pal = CN[C@@H](Cc1cccnc1)C(=O)O; X1 = CCCCCCC[C@H](N[*:1])C(=O)[*:2]; NMeF = CN[C@@H](Cc1ccccc1)C(=O)O; 3Pal = N[C@@H](Cc1cccnc1)C(=O)O; Carboxymethyl = O=C(O)C*; NMeA = CN[C@@H](C)C(=O)O; Sar = CNCC(=O)O

Holding throughout (type): cell-based
Assay [1] concerns the target T1, Myostatin (Homo sapiens, UniProt O14793).
T1 construct: active myostatin (also called mature myostatin) is a homodimer consisting of two C-terminal growth factor domains; purchased R&D systems 788-G8/CF
T1 sequence (O14793 267-375): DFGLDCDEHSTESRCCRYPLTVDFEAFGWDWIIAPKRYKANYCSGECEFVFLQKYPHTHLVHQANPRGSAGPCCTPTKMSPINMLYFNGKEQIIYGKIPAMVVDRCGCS
The experiment in a line: Reporter gene assay for myostatin signaling in HepG2 cell line, Evaluation Procedure (1), myostatin inhibition. As to conditions: Method A: Myostatin 10 ng/mL; read-out: IC50 (Luciferase) Myostatin HepG2. A digest of the protocol:
(§1)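 IC50 derived from One-Glo luciferase luminescence after 20–24 h at 37 °C. Peptides titrated 4-fold at 0.006–100 nmol/L against myostatin or 0.12–2000 nmol/L against GDF-11 in HepG2 cells carrying a transfected CAGA12-luciferase reporter, kept in 0.1% BSA EMEM.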

Assay [2] relates to Myostatin. Described as above. As to conditions: Method A; GDF-11 IC50 versus Myostatin IC50. A digest of the protocol:
as §1

A further assay has as its target T2, GDF-11 (Homo sapiens, UniProt O95390).
T2 construct: purchased R&D systems 1958-GD-G8/CF
T2 sequence (O95390 299-407): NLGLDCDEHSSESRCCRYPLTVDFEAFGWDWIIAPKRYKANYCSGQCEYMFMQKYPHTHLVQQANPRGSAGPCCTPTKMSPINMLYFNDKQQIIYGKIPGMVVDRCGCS
The experiment in a line: Reporter gene assay for myostatin signaling in HepG2 cell line, Evaluation Procedure (1), GDF-11 inhibition. The following applies: Method A: GDF-11 10 ng/mL; read-out: IC50 (Luciferase) GDF-11 HepG2. A digest of the protocol:
as §1

For the compound `CC[C@H](C)[C@@H]1NC(=O)[C@H](Cc2ccccc2)N(C)C(=O)[C@H](Cc2ccc(O)cc2)NC(=O)[C@H](Cc2ccc(-c3ccncc3)cc2)NC(=O)[C@H](C)NC(=O)CN(CCCC(=O)O)C(=O)CSC[C@H](C(=O)O)NC(=O)[C@H](Cc2ccccc2)N(C)C(=O)[C@H](C)N(C)C(=O)[C@H](CC(C)C)NC(=O)[C@H](Cc2ccccc2)N(C)C(=O)[C@H](CCCNC(=N)N)NC(=O)[C@H](Cc2ccc(OCC(=O)O)cc2)NC(=O)[C@H](Cc2cccc(OCC(=O)O)c2)NC(=O)[C@H](C)N(C)C1=O` [Myostatin_99_v83] ({CH2CO}-[Gly(N(CH2)3COOH)]A[Phe(4-(4-pyridyl))]Y[NMeF]I[NMeA][Phe(3-OCH2COOH)]Y(Carboxymethyl)R[NMeF]L[NMeA][NMeF][dC]-OH; thioether N-15), the results for the IC50 on Myostatin [1] and on GDF-11 were 20.9 nM and 3010 nM, respectively. In the assay on Myostatin [2], this compound gave a Selectivity of 144.
Regarding `CCCCCCC[C@@H]1NC(=O)[C@H](Cc2cccnc2)N(C)C(=O)[C@H](CCCNC(=N)N)NC(=O)[C@H](Cc2ccc(C(=O)O)cc2)NC(=O)[C@H](Cc2cccc(OCC(=O)O)c2)NC(=O)CN(C)C(=O)[C@H]([C@@H](C)CC)NC(=O)[C@H](Cc2ccccc2)N(C)C(=O)[C@H](Cc2ccc(O)cc2)NC(=O)[C@H](Cc2c[nH]c3ccccc23)NC(=O)[C@H](C)NC(=O)[C@H](C)NC(=O)CSC[C@H](C(=O)O)NC(=O)[C@H](Cc2ccccc2)N(C)C(=O)[C@H](C)N(C)C1=O` [Myostatin_99_v211] ({CH2CO}-AAWY[NMeF]I[Sar][Phe(3-OCH2COOH)][Phe(4-COOH)]R[NMe3Pal][X1][NMeA][NMeF][dC]-OH; thioether N-15), the half-inhibitory concentration (IC50) amounted to 1.1 nM on Myostatin [1] and 232 nM at GDF-11. Moreover, the Selectivity with Myostatin [2] is on record as 211.
The like results for `CCCCCCC[C@@H]1NC(=O)[C@H](Cc2ccccc2)N(C)C(=O)[C@H](CCCNC(=N)N)NC(=O)[C@H](Cc2ccc(C(=O)O)cc2)NC(=O)[C@H](Cc2cccc(OCC(=O)O)c2)NC(=O)[C@H](C)N(C)C(=O)[C@H]([C@@H](C)CC)NC(=O)[C@H](Cc2ccccc2)N(C)C(=O)[C@H](Cc2ccc(O)cc2)NC(=O)[C@H](Cc2c[nH]c3ccccc23)NC(=O)[C@H](C)NC(=O)[C@H](C)N(C)C(=O)CSC[C@H](C(=O)O)NC(=O)[C@H](Cc2ccccc2)N(C)C(=O)[C@H](C)N(C)C1=O` [Myostatin_99_v195] ({CH2CO}-[NMeA]AWY[NMeF]I[NMeA][Phe(3-OCH2COOH)][Phe(4-COOH)]R[NMeF][X1][NMeA][NMeF][dC]-OH; thioether N-15) were, in that order, 1.3 nM, 255 nM and 196.
For `CCCCCCC[C@@H]1NC(=O)[C@H](Cc2ccccc2)N(C)C(=O)[C@H](CCCNC(=N)N)NC(=O)[C@H](Cc2ccc(C(=O)O)cc2)NC(=O)[C@H](Cc2cccc(OCC(=O)O)c2)NC(=O)CN(C)C(=O)[C@H]([C@@H](C)CC)NC(=O)[C@H](Cc2ccccc2)N(C)C(=O)[C@H](Cc2ccc(O)cc2)NC(=O)[C@H](Cc2c[nH]c3ccccc23)NC(=O)[C@H](C)NC(=O)CN(CCCC(=O)O)C(=O)CSC[C@H](C(=O)O)NC(=O)[C@H](Cc2ccccc2)N(C)C(=O)[C@H](C)N(C)C1=O` [Myostatin_99_v165] ({CH2CO}-[Gly(N(CH2)3COOH)]AWY[NMeF]I[Sar][Phe(3-OCH2COOH)][Phe(4-COOH)]R[NMeF][X1][NMeA][NMeF][dC]-OH; thioether N-15), in that order: 14 nM, 1240 nM and 89.
With `CCCCCCC[C@@H]1NC(=O)[C@H](Cc2ccccc2)NC(=O)[C@H](CCCNC(=N)N)NC(=O)[C@H](Cc2ccc(C(=O)O)cc2)NC(=O)[C@H](Cc2cccc(OCC(=O)O)c2)NC(=O)CN(C)C(=O)[C@H]([C@@H](C)CC)NC(=O)[C@H](Cc2ccccc2)N(C)C(=O)[C@H](Cc2ccc(O)cc2)NC(=O)[C@H](Cc2c[nH]c3ccccc23)NC(=O)[C@H](C)NC(=O)[C@H](C)NC(=O)CSC[C@H](C(=O)O)NC(=O)[C@H](Cc2ccccc2)N(C)C(=O)[C@H](C)N(C)C1=O` [Myostatin_99_v212] ({CH2CO}-AAWY[NMeF]I[Sar][Phe(3-OCH2COOH)][Phe(4-COOH)]RF[X1][NMeA][NMeF][dC]-OH; thioether N-15), the results for the IC50 on Myostatin [1] and on GDF-11 were 3.3 nM and 278 nM, respectively. Further, the Selectivity with Myostatin [2] is listed as 84.
For `CC[C@H](C)[C@@H]1NC(=O)[C@H](Cc2ccccc2)N(C)C(=O)[C@H](Cc2ccc(O)cc2)NC(=O)[C@H](Cc2c[nH]c3ncccc23)NC(=O)[C@H](C)NC(=O)CN(CCCC(=O)O)C(=O)CSC[C@H](C(=O)O)NC(=O)[C@H](Cc2ccccc2)N(C)C(=O)[C@H](C)N(C)C(=O)[C@H](CC(C)C)NC(=O)[C@H](Cc2ccccc2)N(C)C(=O)[C@H](CCCNC(=N)N)NC(=O)[C@H](Cc2cccnc2)NC(=O)[C@H](Cc2ccccc2)NC(=O)CN(C)C1=O` [Myostatin_99_v41] ({CH2CO}-[Gly(N(CH2)3COOH)]A[Trp(7-aza)]Y[NMeF]I[Sar]F[3Pal]R[NMeF]L[NMeA][NMeF][dC]-OH; thioether N-15), in that order: 63.7 nM, 1630 nM and 26.
The like results for `CCCCCCCC[C@@H]1NC(=O)[C@H](Cc2ccccc2)N(C)C(=O)[C@H](CCCNC(=N)N)NC(=O)[C@H](Cc2ccc(C(=O)O)cc2)NC(=O)[C@H](Cc2cccc(OCC(=O)O)c2)NC(=O)[C@H](C)N(C)C(=O)[C@H]([C@@H](C)CC)NC(=O)[C@H](Cc2ccccc2)N(C)C(=O)[C@H](Cc2ccc(O)cc2)NC(=O)[C@H](Cc2c[nH]c3ccccc23)NC(=O)[C@H](C)NC(=O)CN(CCCC(=O)O)C(=O)CSC[C@H](C(=O)O)NC(=O)[C@H](Cc2ccccc2)N(C)C(=O)[C@H](C)N(C)C1=O` [Myostatin_99_v199] ({CH2CO}-[Gly(N(CH2)3COOH)]AWY[NMeF]I[NMeA][Phe(3-OCH2COOH)][Phe(4-COOH)]R[NMeF][Gly(octyl)][NMeA][NMeF][dC]-OH; thioether N-15) were, in that order, 1.2 nM, 159 nM and 133.
Regarding `CCCCCCC[C@@H]1NC(=O)[C@H](Cc2ccccc2)N(C)C(=O)[C@H](CCCNC(=N)N)NC(=O)[C@H](Cc2ccc(C(=O)O)cc2)NC(=O)[C@H](Cc2cccc(OCC(=O)O)c2)NC(=O)CN(C)C(=O)[C@H]([C@@H](C)CC)NC(=O)[C@H](Cc2ccccc2)N(C)C(=O)[C@H](Cc2ccc(O)cc2)NC(=O)[C@H](Cc2c[nH]c3ncccc23)NC(=O)[C@H](C)NC(=O)CN(CCCC(=O)O)C(=O)CSC[C@H](C(=O)O)NC(=O)[C@H](Cc2ccccc2)N(C)C(=O)[C@H](C)N(C)C1=O` [Myostatin_99_v166] ({CH2CO}-[Gly(N(CH2)3COOH)]A[Trp(7-aza)]Y[NMeF]I[Sar][Phe(3-OCH2COOH)][Phe(4-COOH)]R[NMeF][X1][NMeA][NMeF][dC]-OH; thioether N-15), the IC50 at Myostatin [1] came out at 3.5 nM; at GDF-11 it was 951 nM. Besides, the Selectivity with Myostatin [2] came out at 272.
